The record followed here is patent publication US12595248B2, “PRMT5 inhibitors” (Merck Sharp & Dohme LLC, priority 2019, dated 2026).

The target in experiment [1] is T1, PRMT5-MEP50 enzyme complex (Homo sapiens, UniProt O14744).
T1 construct: Full-length (FL)-PRMT5-MEP50 enzyme complex (recombinant proteins from baculovirus-transfected Sf21 cells: FL-PRMT5; MW=73837 kDa and FL-MEP50; MW=38614); made in house; host or cells: baculovirus-transfected Sf21 cells
In words: PRMT5-MEP50 Enzyme Methylation Assay (Version A). The experiment is classed as biochemical.

Another experiment addresses T2, PRMT5 (Homo sapiens, UniProt O14744).
T2 construct: seeded with 4000 MCF-7 cells in 30 μl media; endogenous in cells; host or cells: MCF-7 cells
In words: PRMT5 Cell Target Engagement (TE) Assay. The following applies: MCF-7 cells, treated for 3 days, symmetric dimethylation of arginine (SDMA) by high content imaging. The experiment is classed as cell-based. The method in brief:
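Readout is single-cell nuclear symmetric-dimethylarginine immunofluorescence (Alexa488), normalized to DMSO-treated cells. Compounds were applied to MCF-7 cells for 3 days at 37 °C, top concentration 10000 nM in 1:3 steps over ten points; curves fitted with 4-parameter robust fit.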

Like-named read-outs stand apart in the source and are kept apart here.

T1 sequence (O14744 whole entry): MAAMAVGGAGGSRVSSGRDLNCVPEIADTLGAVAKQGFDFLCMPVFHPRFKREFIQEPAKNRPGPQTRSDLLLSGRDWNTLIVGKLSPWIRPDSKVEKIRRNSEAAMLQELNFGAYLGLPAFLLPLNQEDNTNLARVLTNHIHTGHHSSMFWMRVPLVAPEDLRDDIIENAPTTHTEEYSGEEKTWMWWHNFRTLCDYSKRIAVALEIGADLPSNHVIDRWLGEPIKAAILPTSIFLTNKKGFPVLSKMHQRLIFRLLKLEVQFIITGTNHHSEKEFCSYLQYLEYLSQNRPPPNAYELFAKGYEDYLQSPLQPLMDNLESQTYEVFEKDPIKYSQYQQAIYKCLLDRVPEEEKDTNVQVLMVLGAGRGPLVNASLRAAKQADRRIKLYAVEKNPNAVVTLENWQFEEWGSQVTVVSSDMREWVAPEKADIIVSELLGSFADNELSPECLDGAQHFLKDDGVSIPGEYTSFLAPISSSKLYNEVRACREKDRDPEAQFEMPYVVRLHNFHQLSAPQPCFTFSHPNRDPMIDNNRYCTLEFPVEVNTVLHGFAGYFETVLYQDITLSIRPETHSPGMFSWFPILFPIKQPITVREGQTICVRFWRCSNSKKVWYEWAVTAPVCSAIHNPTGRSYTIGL
T1 sequence (Q9BQA1 whole entry partner): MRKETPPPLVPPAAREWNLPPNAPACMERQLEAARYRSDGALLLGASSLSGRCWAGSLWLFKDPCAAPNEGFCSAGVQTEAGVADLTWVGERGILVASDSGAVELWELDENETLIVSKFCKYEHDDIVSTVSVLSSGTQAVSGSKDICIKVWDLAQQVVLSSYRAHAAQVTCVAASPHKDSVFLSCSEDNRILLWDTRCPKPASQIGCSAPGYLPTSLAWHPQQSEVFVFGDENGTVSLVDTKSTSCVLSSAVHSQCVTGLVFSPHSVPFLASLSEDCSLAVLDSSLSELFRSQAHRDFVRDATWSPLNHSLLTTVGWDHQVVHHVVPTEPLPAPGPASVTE
T2 sequence (O14744 whole entry): as the sequence (O14744 whole entry) above
T2 sequence (Q9BQA1 whole entry partner): as the sequence (Q9BQA1 whole entry partner) above

Consider `O=C(c1cn2cc(Br)cc(Br)c2n1)N1CC[C@H](N2CCc3ccccc3C2)[C@@H](O)C1` [Example 142, (6,8-dibromoimidazo[1,2-a]pyridin-2-yl)[(3S,4S)-4-(3,4-dihydroisoquinolin-2(1H)-yl)-3-hydroxypiperidin-1-yl]methanone], for which the EC50 amounted to 1.1 nM in experiment [1] (only one EC50 shown: 4 parameters single site sigmoidal model, 60 min pre-incubation with SAM, read-out: Enzyme Methylation Assay Version A (EC50)) and 8.6 nM on PRMT5.
For the compound `O=C(c1cc2ncc(Br)cn2n1)N1CC[C@H](N2CCc3ccccc3C2)[C@@H](O)C1` [Example 143, (6-bromopyrazolo[1,5-a]pyrimidin-2-yl)[(3S,4S)-4-(3,4-dihydroisoquinolin-2(1H)-yl)-3-hydroxypiperidin-1-yl]methanone], the EC50 was 2.8 nM in experiment [1] (first of two EC50s: 7 parameters biphasic model, read-out: Enzyme Methylation Assay Version A (EC50_1)); 1820 nM in experiment [1] (second of two EC50s: 7 parameters biphasic model, read-out: Enzyme Methylation Assay Version A (EC50_2)); 806 nM at PRMT5.
